Data: article PMC9030254, “Target Hopping from Protein Kinases to PXR: Identification of Small-Molecule Protein Kinase Inhibitors as Selective Modulators of Pregnane X Receptor from TüKIC Library” (Cells, 2022)

How the values were obtained:
Experiment in all cases: Kinase profiling
Assay type in all cases: biochemical
[1] = molecular target: T1, DCAMKL2 (Homo sapiens, UniProt Q8N568)
T1 construct: purchased ProQinase (Freiburg, Germany)
T1 sequence (Q8N568 1-766): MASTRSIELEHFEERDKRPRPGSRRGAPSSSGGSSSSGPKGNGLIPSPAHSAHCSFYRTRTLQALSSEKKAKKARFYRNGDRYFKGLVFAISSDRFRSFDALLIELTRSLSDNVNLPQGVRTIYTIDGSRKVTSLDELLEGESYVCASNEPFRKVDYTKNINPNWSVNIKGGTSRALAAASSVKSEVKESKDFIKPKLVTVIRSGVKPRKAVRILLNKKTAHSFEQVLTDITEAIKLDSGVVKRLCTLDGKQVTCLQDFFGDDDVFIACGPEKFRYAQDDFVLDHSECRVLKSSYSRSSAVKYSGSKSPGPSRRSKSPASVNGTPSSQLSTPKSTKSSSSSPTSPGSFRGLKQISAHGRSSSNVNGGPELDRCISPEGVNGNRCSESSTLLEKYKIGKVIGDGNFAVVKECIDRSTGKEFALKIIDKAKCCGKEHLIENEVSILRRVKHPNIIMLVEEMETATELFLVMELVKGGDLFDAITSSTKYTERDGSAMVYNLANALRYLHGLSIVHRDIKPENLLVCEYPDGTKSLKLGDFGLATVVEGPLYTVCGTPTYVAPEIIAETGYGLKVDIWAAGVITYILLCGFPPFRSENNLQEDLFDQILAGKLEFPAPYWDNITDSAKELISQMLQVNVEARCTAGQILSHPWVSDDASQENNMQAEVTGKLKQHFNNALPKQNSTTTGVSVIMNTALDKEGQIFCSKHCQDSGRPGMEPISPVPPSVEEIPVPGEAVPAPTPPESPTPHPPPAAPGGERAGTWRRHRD
Experimental: (§1) The analysis was performed by ProQinase (Freiburg, Germany).

[2] = molecular target: T2, EPHB1 (Homo sapiens, UniProt P54762)
T2 construct: purchased ProQinase (Freiburg, Germany)
T2 sequence (P54762 18-984): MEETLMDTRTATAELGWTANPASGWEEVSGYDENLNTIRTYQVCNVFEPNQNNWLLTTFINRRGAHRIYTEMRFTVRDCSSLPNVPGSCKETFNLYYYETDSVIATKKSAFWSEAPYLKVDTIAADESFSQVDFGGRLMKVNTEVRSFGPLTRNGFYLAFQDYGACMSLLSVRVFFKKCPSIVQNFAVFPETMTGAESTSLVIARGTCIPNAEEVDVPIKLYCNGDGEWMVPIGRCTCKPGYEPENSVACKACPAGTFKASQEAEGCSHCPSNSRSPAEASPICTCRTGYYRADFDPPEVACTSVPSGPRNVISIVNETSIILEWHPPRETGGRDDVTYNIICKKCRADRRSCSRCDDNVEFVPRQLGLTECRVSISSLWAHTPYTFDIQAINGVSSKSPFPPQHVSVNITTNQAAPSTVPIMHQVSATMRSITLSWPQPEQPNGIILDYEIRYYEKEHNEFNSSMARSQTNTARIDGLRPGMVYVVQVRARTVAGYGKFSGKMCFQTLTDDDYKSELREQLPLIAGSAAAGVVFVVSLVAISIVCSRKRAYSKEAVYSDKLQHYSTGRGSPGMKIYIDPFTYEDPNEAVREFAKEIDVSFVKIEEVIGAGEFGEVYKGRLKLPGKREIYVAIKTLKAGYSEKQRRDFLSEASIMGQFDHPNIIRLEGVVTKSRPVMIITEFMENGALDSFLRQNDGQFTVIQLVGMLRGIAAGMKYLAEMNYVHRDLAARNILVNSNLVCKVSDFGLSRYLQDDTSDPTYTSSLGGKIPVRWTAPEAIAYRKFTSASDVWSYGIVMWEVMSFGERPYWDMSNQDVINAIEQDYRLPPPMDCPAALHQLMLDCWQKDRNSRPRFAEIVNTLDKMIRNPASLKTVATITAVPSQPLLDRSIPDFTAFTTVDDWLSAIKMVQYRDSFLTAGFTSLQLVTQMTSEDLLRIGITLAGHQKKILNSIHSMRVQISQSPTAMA
Experimental: as §1

[3] = molecular target: T3, GRK6 (Homo sapiens, UniProt P43250)
T3 construct: purchased ProQinase (Freiburg, Germany)
Experimental: as §1

[4] = molecular target: T4, MAP3K7/MAP3K7IP1 (Homo sapiens, UniProt O43318)
T4 construct: purchased ProQinase (Freiburg, Germany)
T4 sequence (O43318 1-303 limits assumed): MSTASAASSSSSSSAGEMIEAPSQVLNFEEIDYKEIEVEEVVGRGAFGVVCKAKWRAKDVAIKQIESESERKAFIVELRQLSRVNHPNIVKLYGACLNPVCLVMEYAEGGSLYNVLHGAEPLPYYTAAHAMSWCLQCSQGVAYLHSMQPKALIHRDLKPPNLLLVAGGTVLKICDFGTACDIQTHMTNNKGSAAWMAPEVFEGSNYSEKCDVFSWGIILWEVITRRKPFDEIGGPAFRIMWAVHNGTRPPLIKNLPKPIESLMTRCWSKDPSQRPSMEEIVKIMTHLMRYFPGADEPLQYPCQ
Experimental: as §1

[5] = molecular target: T5, MEK1 (Homo sapiens, UniProt Q02750)
T5 construct: purchased ProQinase (Freiburg, Germany)
Experimental: as §1

[6] = molecular target: T6, PAK7 (Homo sapiens, UniProt Q9P286)
T6 construct: purchased ProQinase (Freiburg, Germany)
Experimental: as §1

[7] = molecular target: T7, PKCeta (Homo sapiens, UniProt P24723)
T7 construct: purchased ProQinase (Freiburg, Germany)
Experimental: as §1

T7 sequence (P24723 whole entry): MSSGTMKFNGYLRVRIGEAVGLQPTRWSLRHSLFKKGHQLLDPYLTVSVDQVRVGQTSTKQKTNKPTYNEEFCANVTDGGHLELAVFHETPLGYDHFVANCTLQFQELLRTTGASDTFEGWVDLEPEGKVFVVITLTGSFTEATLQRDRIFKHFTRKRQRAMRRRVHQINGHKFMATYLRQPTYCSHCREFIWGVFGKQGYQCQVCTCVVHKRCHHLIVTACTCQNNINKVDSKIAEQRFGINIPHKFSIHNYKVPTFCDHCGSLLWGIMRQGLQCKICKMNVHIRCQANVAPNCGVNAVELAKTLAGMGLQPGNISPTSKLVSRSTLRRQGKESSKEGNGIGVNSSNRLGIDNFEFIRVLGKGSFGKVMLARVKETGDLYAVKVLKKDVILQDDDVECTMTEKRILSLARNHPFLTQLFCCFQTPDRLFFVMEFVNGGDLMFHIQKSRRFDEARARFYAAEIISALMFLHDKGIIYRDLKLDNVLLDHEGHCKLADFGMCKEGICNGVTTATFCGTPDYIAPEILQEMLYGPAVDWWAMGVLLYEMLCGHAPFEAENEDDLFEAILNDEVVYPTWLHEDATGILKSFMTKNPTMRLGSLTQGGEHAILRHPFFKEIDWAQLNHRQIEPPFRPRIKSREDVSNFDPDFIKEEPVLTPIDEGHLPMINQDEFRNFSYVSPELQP
T5 sequence (Q02750 whole entry): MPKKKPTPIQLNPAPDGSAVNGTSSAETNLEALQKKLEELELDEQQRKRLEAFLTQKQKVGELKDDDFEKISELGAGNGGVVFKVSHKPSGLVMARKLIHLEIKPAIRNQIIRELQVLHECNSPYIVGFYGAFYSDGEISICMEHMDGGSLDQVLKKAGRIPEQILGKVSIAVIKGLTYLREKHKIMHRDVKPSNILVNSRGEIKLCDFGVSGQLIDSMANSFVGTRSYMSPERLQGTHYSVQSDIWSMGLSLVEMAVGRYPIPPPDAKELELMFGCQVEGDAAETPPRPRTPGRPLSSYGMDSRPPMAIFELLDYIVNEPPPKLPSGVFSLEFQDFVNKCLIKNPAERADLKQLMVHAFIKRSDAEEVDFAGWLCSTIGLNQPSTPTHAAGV
T3 sequence (P43250 whole entry): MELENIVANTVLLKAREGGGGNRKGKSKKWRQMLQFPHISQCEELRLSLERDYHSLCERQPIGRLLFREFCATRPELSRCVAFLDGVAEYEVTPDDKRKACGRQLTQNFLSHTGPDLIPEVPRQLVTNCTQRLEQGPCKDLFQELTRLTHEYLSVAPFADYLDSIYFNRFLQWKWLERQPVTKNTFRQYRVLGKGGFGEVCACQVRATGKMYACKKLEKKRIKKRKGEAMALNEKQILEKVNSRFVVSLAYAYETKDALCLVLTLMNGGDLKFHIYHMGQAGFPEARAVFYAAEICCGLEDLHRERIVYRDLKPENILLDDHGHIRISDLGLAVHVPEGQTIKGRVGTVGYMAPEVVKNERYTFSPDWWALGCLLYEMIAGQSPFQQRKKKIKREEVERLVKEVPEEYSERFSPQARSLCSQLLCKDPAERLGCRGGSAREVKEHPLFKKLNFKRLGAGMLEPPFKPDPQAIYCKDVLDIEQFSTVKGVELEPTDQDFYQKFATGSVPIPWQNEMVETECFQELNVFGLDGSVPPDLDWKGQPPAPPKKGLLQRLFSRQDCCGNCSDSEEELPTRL
T6 sequence (Q9P286 whole entry): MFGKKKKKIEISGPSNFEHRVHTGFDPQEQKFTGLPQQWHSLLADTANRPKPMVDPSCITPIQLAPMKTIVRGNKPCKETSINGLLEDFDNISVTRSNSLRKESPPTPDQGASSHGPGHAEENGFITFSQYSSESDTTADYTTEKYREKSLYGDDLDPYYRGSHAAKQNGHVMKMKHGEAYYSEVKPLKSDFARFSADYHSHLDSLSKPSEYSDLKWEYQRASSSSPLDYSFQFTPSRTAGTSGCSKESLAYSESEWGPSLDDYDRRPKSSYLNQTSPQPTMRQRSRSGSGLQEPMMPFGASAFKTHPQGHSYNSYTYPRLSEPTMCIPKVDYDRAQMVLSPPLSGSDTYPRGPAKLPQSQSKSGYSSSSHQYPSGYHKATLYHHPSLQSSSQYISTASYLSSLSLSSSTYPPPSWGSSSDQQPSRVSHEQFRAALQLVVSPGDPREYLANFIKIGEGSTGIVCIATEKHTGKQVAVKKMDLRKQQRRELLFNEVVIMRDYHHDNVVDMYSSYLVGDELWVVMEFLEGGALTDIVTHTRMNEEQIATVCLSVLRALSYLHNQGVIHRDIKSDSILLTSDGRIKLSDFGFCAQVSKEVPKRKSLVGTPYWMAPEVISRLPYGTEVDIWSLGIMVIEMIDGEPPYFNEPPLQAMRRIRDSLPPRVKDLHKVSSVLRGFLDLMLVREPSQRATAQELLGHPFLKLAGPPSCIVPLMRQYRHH

| Structure (SMILES) | Residual activity ([1]; 1.0E-05 M) | Residual activity ([1]; 1.0E-06 M) | Residual activity ([2]; 1.0E-05 M) | Residual activity ([2]; 1.0E-06 M) | Residual activity ([3]; 1.0E-05 M) | Residual activity ([3]; 1.0E-06 M) | Residual activity ([4]; 1.0E-05 M) | Residual activity ([4]; 1.0E-06 M) | Residual activity ([5]; 1.0E-05 M) | Residual activity ([5]; 1.0E-06 M) | Residual activity ([6]; 1.0E-05 M) | Residual activity ([6]; 1.0E-06 M) | Residual activity ([7]; 1.0E-05 M) | Residual activity ([7]; 1.0E-06 M) |
| --- | --- | --- | --- | --- | --- | --- | --- | --- | --- | --- | --- | --- | --- | --- |
| O=C(Cc1ccccc1)Nc1ccc(F)c(Nc2ccc3c(c2)CCCCC3=O)c1 [Compound 100] | 89 % of control | 101 % of control | 103 % of control | 113 % of control | 114 % of control | 117 % of control | 91 % of control | 88 % of control | 114 % of control | 112 % of control | 92 % of control | 99 % of control | 115 % of control | 116 % of control |
| O=C(Nc1ccc(F)c(Nc2ccc3c(c2)CCCCC3=O)c1)c1cccc(F)c1 [Compound 109] | 103 % of control | 100 % of control | 95 % of control | 113 % of control | 121 % of control | 113 % of control | 91 % of control | 91 % of control | 109 % of control | 109 % of control | 93 % of control | 101 % of control | 110 % of control | 116 % of control |
